Test results published in ChEMBL document CHEMBL5036332, “Glucose-Lipopeptide Conjugates Reveal the Role of Glucose Modification Position in Complexation and the Potential of Malignant Melanoma Therapy” (J Med Chem, 2021).
*1 amine or outer side, *2 acyl side, *3 side chain or, on linkers, in order; H or OH if unused. Where a SMILES comes first, the peptide text is derived from it. Side-chain parts run from the residue outwards. The star is where a group is joined. NH(CH2)3O(βDGlc) = OC[C@H]1O[C@@H](OCCCN*)[C@H](O)[C@@H](O)[C@@H]1O; Glutaryl = O=C(CCCC(=O)[*:2])[*:1]; Lauroyl = CCCCCCCCCCCC(=O)*

What was measured:
MDA-MB-231 = assay: Cytotoxicity against human MDA-MB-231 cells assessed as cell viability measured after 24 hrs by CCK-8 assay; format: functional, cell-based; conditions: MDA-MB-231, 24 h
MX1 = assay: Cytotoxicity against human MX1 cells assessed as cell viability measured after 24 hrs by CCK-8 assay; format: functional, cell-based; conditions: MX1, 24 h
MCF7 = assay: Cytotoxicity against human MCF7 cells assessed as cell viability measured after 24 hrs by CCK-8 assay; format: functional, cell-based; conditions: MCF7, 24 h
[1] = target: T1, Solute carrier family 2, facilitated glucose transporter member 1 (Homo sapiens) (UniProt P11166); assay: Binding affinity to GLUT1 (unknown origin) assessed as binding free energy
T1 sequence (whole entry): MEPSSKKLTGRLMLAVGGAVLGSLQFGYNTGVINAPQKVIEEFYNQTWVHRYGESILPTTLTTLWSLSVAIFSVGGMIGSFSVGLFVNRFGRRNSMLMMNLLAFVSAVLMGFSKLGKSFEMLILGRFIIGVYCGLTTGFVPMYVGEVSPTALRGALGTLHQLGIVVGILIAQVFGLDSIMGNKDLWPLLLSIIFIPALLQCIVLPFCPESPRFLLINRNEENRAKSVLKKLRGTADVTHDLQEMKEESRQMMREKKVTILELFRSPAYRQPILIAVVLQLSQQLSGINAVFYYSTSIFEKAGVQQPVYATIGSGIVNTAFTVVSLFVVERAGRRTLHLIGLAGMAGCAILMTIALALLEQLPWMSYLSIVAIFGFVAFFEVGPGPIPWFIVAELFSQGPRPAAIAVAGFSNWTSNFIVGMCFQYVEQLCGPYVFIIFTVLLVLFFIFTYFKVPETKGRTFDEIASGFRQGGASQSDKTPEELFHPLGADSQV

Homo sapiens = species on record: Homo sapiens; assay: Binding affinity to membrane (unknown origin) assessed as binding free energy
[2] = target: T1, Solute carrier family 2, facilitated glucose transporter member 1 (Homo sapiens); assay: Binding affinity to GLUT1 (unknown origin) membrane assessed as free energy
B16-F10 = assay: Cytotoxicity against mouse B16-F10 cells assessed as cell viability after 24 hrs by CCK-8 assay; format: functional, cell-based; conditions: B16-F10, 24 h

| Molecule | IC50 (MDA-MB-231) [µM] | IC50 (MX1) [µM] | IC50 (MCF7) [µM] | deltaG [1] [kcal/mol] | deltaG (Homo sapiens) [kcal/mol] | deltaG [2] [kcal/mol] | IC50 (B16-F10) [µM] |
| --- | --- | --- | --- | --- | --- | --- | --- |
| CCCCCCCCCCCCCCCC(=O)N[C@@H](CCCNC(=N)N)C(=O)N[C@@H](Cc1c[nH]c2ccccc12)C(=O)N[C@@H](CCCCN)C(=O)N[C@H](C(=O)N[C@@H](Cc1ccccc1)C(=O)N[C@@H](CCCCN)C(=O)N[C@@H](CCCCN)C(=O)N[C@H](C(=O)N[C@@H](CCC(=O)O)C(=O)N[C@@H](CCCCN)C(=O)N[C@H](C(=O)NCC(=O)N[C@@H](CCC(N)=O)C(=O)N[C@@H](CC(N)=O)C(=O)N[C@H](C(=O)N[C@@H](CCCNC(=N)N)C(=O)N[C@@H](CC(=O)O)C(=O)NCC(=O)N[C@H](C(=O)N[C@H](C(=O)N[C@@H](CCCCN)C(=O)N[C@@H](C)C(=O)NCC(=O)N1CCC[C@H]1C(=O)N[C@@H](C)C(=O)N[C@H](C(=O)N[C@@H](C)C(=O)N[C@H](C(=O)N[C@H](C(=O)NCC(=O)N[C@@H](CCC(N)=O)C(=O)N[C@@H](C)C(=O)N[C@@H](C)C(=O)N[C@H](C(=O)N[C@H](C(N)=O)[C@@H](C)CC)[C@@H](C)O)C(C)C)C(C)C)C(C)C)C(C)C)[C@@H](C)CC)[C@@H](C)CC)C(C)C)[C@@H](C)CC)[C@@H](C)CC (HELM PEPTIDE1{[CCCCCCCCCCCCCCCC(=O)[*:2]].R.W.K.I.F.K.K.I.E.K.V.G.Q.N.I.R.D.G.I.V.K.A.G.P.A.V.A.V.V.G.Q.A.A.T.I.[am]}$$$$V2.0) | < 8 | < 8 | < 8 |  |  |  |  |
| CCCCCCCCCCCC(=O)N[C@@H](CCCNC(=N)N)C(=O)NCC(=O)N[C@@H](Cc1c[nH]c2ccccc12)C(=O)N[C@@H](Cc1ccccc1)C(=O)N[C@@H](CCCNC(=N)N)C(=O)N[C@@H](C)C(=O)N[C@@H](CCSC)C(=O)N[C@@H](CCCNC(=N)N)C(=O)N[C@@H](CO)C(=O)N[C@H](C(=O)N[C@@H](C)C(=O)N[C@@H](CCCNC(=N)N)C(=O)N[C@@H](Cc1ccccc1)C(=O)N[C@H](C(=O)N[C@@H](C)C(=O)N[C@@H](CCCNC(=N)N)C(=O)N[C@@H](CCC(=O)O)C(=O)N[C@@H](CCCNC(=N)N)C(=O)N[C@@H](CC(C)C)C(=O)N[C@@H](CCCCNC(=O)CCCC(=O)NCCCO[C@@H]1O[C@H](CO)[C@@H](O)[C@H](O)[C@H]1O)C(=O)N[C@@H](CCC(=O)O)C(=O)N[C@@H](Cc1cnc[nH]1)C(=O)N[C@@H](CC(C)C)C(N)=O)[C@@H](C)CC)[C@@H](C)CC (Lauroyl-RGWFRAMRSIARFIARERLK([Glutaryl-NH(CH2)3O(βDGlc)])EHL-NH2) |  |  |  | -77.1 | -65.7 | -123 | 3.5 |
| CCCCCCCCCCCCCC(=O)N[C@@H](CCCNC(=N)N)C(=O)N[C@@H](Cc1c[nH]c2ccccc12)C(=O)N[C@@H](CCCCN)C(=O)N[C@H](C(=O)N[C@@H](Cc1ccccc1)C(=O)N[C@@H](CCCCN)C(=O)N[C@@H](CCCCN)C(=O)N[C@H](C(=O)N[C@@H](CCC(=O)O)C(=O)N[C@@H](CCCCN)C(=O)N[C@H](C(=O)NCC(=O)N[C@@H](CCC(N)=O)C(=O)N[C@@H](CC(N)=O)C(=O)N[C@H](C(=O)N[C@@H](CCCNC(=N)N)C(=O)N[C@@H](CC(=O)O)C(=O)NCC(=O)N[C@H](C(=O)N[C@H](C(=O)N[C@@H](CCCCN)C(=O)N[C@@H](C)C(=O)NCC(=O)N1CCC[C@H]1C(=O)N[C@@H](C)C(=O)N[C@H](C(=O)N[C@@H](C)C(=O)N[C@H](C(=O)N[C@H](C(=O)NCC(=O)N[C@@H](CCC(N)=O)C(=O)N[C@@H](C)C(=O)N[C@@H](C)C(=O)N[C@H](C(=O)N[C@H](C(N)=O)[C@@H](C)CC)[C@@H](C)O)C(C)C)C(C)C)C(C)C)C(C)C)[C@@H](C)CC)[C@@H](C)CC)C(C)C)[C@@H](C)CC)[C@@H](C)CC (HELM PEPTIDE1{[CCCCCCCCCCCCCC(=O)[*:2]].R.W.K.I.F.K.K.I.E.K.V.G.Q.N.I.R.D.G.I.V.K.A.G.P.A.V.A.V.V.G.Q.A.A.T.I.[am]}$$$$V2.0) | < 8 | < 8 | < 8 |  |  |  |  |
| CCCCCCCCCCCC(=O)N[C@@H](CCCNC(=N)N)C(=O)NCC(=O)N[C@@H](Cc1c[nH]c2ccccc12)C(=O)N[C@@H](Cc1ccccc1)C(=O)N[C@@H](CCCNC(=N)N)C(=O)N[C@@H](C)C(=O)N[C@@H](CCSC)C(=O)N[C@@H](CCCNC(=N)N)C(=O)N[C@@H](CO)C(=O)N[C@H](C(=O)N[C@@H](C)C(=O)N[C@@H](CCCNC(=N)N)C(=O)N[C@@H](Cc1ccccc1)C(=O)N[C@@H](CC(C)C)C(=O)N[C@@H](C)C(=O)N[C@@H](CCCCNC(=O)CCCC(=O)NCCCO[C@@H]1O[C@H](CO)[C@@H](O)[C@H](O)[C@H]1O)C(=O)N[C@@H](CCC(=O)O)C(=O)N[C@@H](CCCNC(=N)N)C(=O)N[C@@H](CC(C)C)C(=O)N[C@@H](CCCNC(=N)N)C(=O)N[C@@H](CCC(=O)O)C(=O)N[C@@H](Cc1cnc[nH]1)C(=O)N[C@@H](CC(C)C)C(N)=O)[C@@H](C)CC (Lauroyl-RGWFRAMRSIARFLAK([Glutaryl-NH(CH2)3O(βDGlc)])ERLREHL-NH2) |  |  |  | -61 | -87.9 | -79.9 | 3.8 |
| CCCCCCCCCCCC(=O)N[C@@H](CCCNC(=N)N)C(=O)NCC(=O)N[C@@H](Cc1c[nH]c2ccccc12)C(=O)N[C@@H](Cc1ccccc1)C(=O)N[C@@H](CCCCNC(=O)CCCC(=O)NCCCO[C@@H]1O[C@H](CO)[C@@H](O)[C@H](O)[C@H]1O)C(=O)N[C@@H](C)C(=O)N[C@@H](CCSC)C(=O)N[C@@H](CCCNC(=N)N)C(=O)N[C@@H](CO)C(=O)N[C@H](C(=O)N[C@@H](C)C(=O)N[C@@H](CCCNC(=N)N)C(=O)N[C@@H](Cc1ccccc1)C(=O)N[C@H](C(=O)N[C@@H](C)C(=O)N[C@@H](CCCNC(=N)N)C(=O)N[C@@H](CCC(=O)O)C(=O)N[C@@H](CCCNC(=N)N)C(=O)N[C@@H](CC(C)C)C(=O)N[C@@H](CCCNC(=N)N)C(=O)N[C@@H](CCC(=O)O)C(=O)N[C@@H](Cc1cnc[nH]1)C(=O)N[C@@H](CC(C)C)C(N)=O)[C@@H](C)CC)[C@@H](C)CC (Lauroyl-RGWFK([Glutaryl-NH(CH2)3O(βDGlc)])AMRSIARFIARERLREHL-NH2) |  |  |  | -64.3 | -63.6 | -64.1 | 5.3 |
| CCCCCCCCCCCC(=O)N[C@@H](CCCNC(=N)N)C(=O)NCC(=O)N[C@@H](Cc1c[nH]c2ccccc12)C(=O)N[C@@H](Cc1ccccc1)C(=O)N[C@@H](CCCNC(=N)N)C(=O)N[C@@H](C)C(=O)N[C@@H](CCSC)C(=O)N[C@@H](CCCCNC(=O)CCCC(=O)NCCCO[C@@H]1O[C@H](CO)[C@@H](O)[C@H](O)[C@H]1O)C(=O)N[C@@H](CO)C(=O)N[C@H](C(=O)N[C@@H](C)C(=O)N[C@@H](CCCNC(=N)N)C(=O)N[C@@H](Cc1ccccc1)C(=O)N[C@H](C(=O)N[C@@H](C)C(=O)N[C@@H](CCCNC(=N)N)C(=O)N[C@@H](CCC(=O)O)C(=O)N[C@@H](CCCNC(=N)N)C(=O)N[C@@H](CC(C)C)C(=O)N[C@@H](CCCNC(=N)N)C(=O)N[C@@H](CCC(=O)O)C(=O)N[C@@H](Cc1cnc[nH]1)C(=O)N[C@@H](CC(C)C)C(N)=O)[C@@H](C)CC)[C@@H](C)CC (Lauroyl-RGWFRAMK([Glutaryl-NH(CH2)3O(βDGlc)])SIARFIARERLREHL-NH2) |  |  |  | -58.5 | -27.5 | -87.4 | 4.1 |
| CCCCCCCCCCCC(=O)N[C@@H](CCCNC(=N)N)C(=O)NCC(=O)N[C@@H](Cc1c[nH]c2ccccc12)C(=O)N[C@@H](Cc1ccccc1)C(=O)N[C@@H](CCCNC(=N)N)C(=O)N[C@@H](C)C(=O)N[C@@H](CCSC)C(=O)N[C@@H](CCCNC(=N)N)C(=O)N[C@@H](CO)C(=O)N[C@H](C(=O)N[C@@H](C)C(=O)N[C@@H](CCCNC(=N)N)C(=O)N[C@@H](Cc1ccccc1)C(=O)N[C@H](C(=O)N[C@@H](C)C(=O)N[C@@H](CCCNC(=N)N)C(=O)N[C@@H](CCC(=O)O)C(=O)N[C@@H](CCCCNC(=O)CCCC(=O)NCCCO[C@@H]1O[C@H](CO)[C@@H](O)[C@H](O)[C@H]1O)C(=O)N[C@@H](CC(C)C)C(=O)N[C@@H](CCCNC(=N)N)C(=O)N[C@@H](CCC(=O)O)C(=O)N[C@@H](Cc1cnc[nH]1)C(=O)N[C@@H](CC(C)C)C(N)=O)[C@@H](C)CC)[C@@H](C)CC (Lauroyl-RGWFRAMRSIARFIAREK([Glutaryl-NH(CH2)3O(βDGlc)])LREHL-NH2) |  |  |  | -60.1 | -66.8 | -72.8 | 3.3 |
| H-RWKIFKKIEKVGQNIRDGIVKAGPAVAVVGQAATI-NH2 | < 8 | < 8 | < 8 |  |  |  |  |
| CCCCCCCCCCCC(=O)N[C@@H](CCCCNC(=O)CCCC(=O)NCCCO[C@@H]1O[C@H](CO)[C@@H](O)[C@H](O)[C@H]1O)C(=O)NCC(=O)N[C@@H](Cc1c[nH]c2ccccc12)C(=O)N[C@@H](Cc1ccccc1)C(=O)N[C@@H](CCCNC(=N)N)C(=O)N[C@@H](C)C(=O)N[C@@H](CCSC)C(=O)N[C@@H](CCCNC(=N)N)C(=O)N[C@@H](CO)C(=O)N[C@H](C(=O)N[C@@H](C)C(=O)N[C@@H](CCCNC(=N)N)C(=O)N[C@@H](Cc1ccccc1)C(=O)N[C@H](C(=O)N[C@@H](C)C(=O)N[C@@H](CCCNC(=N)N)C(=O)N[C@@H](CCC(=O)O)C(=O)N[C@@H](CCCNC(=N)N)C(=O)N[C@@H](CC(C)C)C(=O)N[C@@H](CCCNC(=N)N)C(=O)N[C@@H](CCC(=O)O)C(=O)N[C@@H](Cc1cnc[nH]1)C(=O)N[C@@H](CC(C)C)C(N)=O)[C@@H](C)CC)[C@@H](C)CC (Lauroyl-K([Glutaryl-NH(CH2)3O(βDGlc)])GWFRAMRSIARFIARERLREHL-NH2) |  |  |  | -61.7 | -61.5 | -73.7 | 7.2 |
